Laboratory results as given in patent US4252956A, “Derivatives of 1,4-dihydropyridine-3-carbothiol acids” (priority 1979, dated 1981).
Read-outs that look alike come from different tables or passages of the source.

Assays:
[1] = tested on: coronarodilating activity; conditions: in vivo; cited from earlier work
coronary blood flow = assay: recording the volume rate of coronary blood flow in experiments on narcotized cats (coronarodilating activity); type: in vivo; conditions: for ED (30-50%): Felis catus, iv, read-out: Dose increasing the coronary blood flow by 30-50%; for Duration of the effect: Table, at the dose increasing the coronary blood flow; for coronarodilating activity: narcotized cats
Method: (§1) Tests of the compounds according to the present invention were performed in comparison with the prior art coronarodilating agents; carbocromene and ditrimine and with the prior art spasmolytic preparation-papaverine having a myotropic effect.

arterial pressure = assay: hypotensive effect (arterial pressure, heart activity); type: in vivo; conditions: for ED30: read-out: ED30 of the hypotensive effect
Method: as §1

white mice = assay: in vivo
in vivo = conditions: mouse, in vivo, ip; white mice, intraperitoneal; read-out: LD50 for white mice upon intraperitoneal administration
[2] = increase of coronary blood flow by 30-50%

SMILES | ED (30-50%) (coronary blood flow; [2]) | Duration of the effect (coronary blood flow) | ED30 (arterial pressure) | other results
COC(=O)C1=C(C)NC(C)=C(C(=O)OC)C1c1ccccc1[N+](=O)[O-] [2,6-dimethyl-3,5-dicarbometh-oxy-4-o-nitrophenyl-1,4-dihydropyridine] | – | – | – | coronarodilating activity (prior art) [1]: pronounced coronarodilating activity
CCOC(=O)COc1ccc2c(C)c(CCN(CC)CC)c(=O)oc2c1 [Carbocromene, reference compound] | 0.5 mg/kg | – | – | –
COc1cc(C(=O)OCCCN(C)CCN(C)CCCOC(=O)c2cc(OC)c(OC)c(OC)c2)cc(OC)c1OC [Ditrimine, reference compound] | – | – | – | Dose increasing the coronary blood flow by 30-50% (coronary blood flow; [2]): 0.5 mg/kg; ED30 of the hypotensive effect (arterial pressure; in vivo): 1.0 mg/kg; LD50 for white mice upon intraperitoneal administration (white mice): 180 (149-218) mg/kg
CCSC(=O)C1=C(C)NC(C)=C(C(=O)SCC)C1 [I, Di-S-ethyl ester of 2,6-dimethyl-1,4-dihydropyridine-3,5-dicarbothiol acid] | 1 mg/kg | 60 to 90 min | 1.8 mg/kg | LD50 (in vivo): > 4000 mg/kg
CCSC(=O)C1=C(C)NC(C)=C(C(=O)SCC)C1c1cccnc1 [II, Di-S-ethyl ester of 2,6-dimethyl-4-m-pyridyl-1,4-dihydropyridine-3,5-dicarbothiol acid] | 0.5 mg/kg | > 120 min | 0.56 mg/kg | coronarodilating activity (coronary blood flow): most active
CCOC(=O)C1=C(C)NC(C)=C(C(=O)SCc2ccccc2)C1c1ccccc1 (centres unmarked) [III, 3-S-benzyl-5-ethyl ester of 4-phenyl-2,6-dimethyl-1,4-dihydropyridine-3-carbothiol-5-carboxylic acid] | 0.5 mg/kg | 150 min | 1.65 mg/kg | coronarodilating activity (coronary blood flow): most active
CCOC(=O)C1=C(C)NC(C)=C(C(=O)SCc2ccccc2)C1C (centres unmarked) [IV, 3-S-benzyl-5-ethyl ester of 2,4,6-trimethyl-1,4-dihydropyridine-3-carbothiol-5-carboxylic acid] | 2 to 4 mg/kg | 30 to 60 min | 3.45 mg/kg | –
CCSC(=O)C1=C(C)NC2=C(C(=O)c3ccccc32)C1c1ccc([N+](=O)[O-])cc1 (centres unmarked) [IX, 2-methyl-3-ethyl-thiocarbonyl-4-p-nitrophenyl-5-oxo-1,4-dihydroindeno-(1,2-b)-pyridine] | 3 mg/kg | – | 1 mg/kg | –
COc1ccc(Cc2nccc3cc(OC)c(OC)cc23)cc1OC [Papaverine, reference compound] | – | 10 to 20 min | 0.27 mg/kg | ED (30-50%) (coronary blood flow): 1 mg/kg; LD50 (in vivo): 91 mg/kg
CCSC(=O)C1=C(C)NC2=C(C(=O)c3ccccc32)C1c1ccccc1 (centres unmarked) [V, 2-methyl-3-ethylthiocarbonyl-4-phenyl-5-oxo-1,4-dihydroindeno-(1,2-b)-pyridine] | 3 mg/kg | – | 3 mg/kg | –
CC1=C(C(=O)SCc2ccccc2)C(c2ccccc2)C2=C(N1)c1ccccc1C2=O (centres unmarked) [VI, 2-methyl-3-benzylthiocarbonyl-4-phenyl-5-oxo-1,4-dihydroindeno-(1,2-b)-pyridine] | – | – | 1 mg/kg | ED (30-50%) (coronary blood flow): 0.3 mg/kg; coronarodilating activity (coronary blood flow): most active
CC1=C(C(=O)SCc2ccccc2)C(c2ccccc2O)C2=C(N1)c1ccccc1C2=O (centres unmarked) [VII, 2-methyl-3-benzylthiocarbonyl-4-o-hydroxyphenyl-5-oxo-1,4-dihydroindeno-(1,2-b)-pyridine] | – | – | 1 mg/kg | ED (30-50%) (coronary blood flow): 0.5 mg/kg; coronarodilating activity (coronary blood flow): most active
CCSC(=O)C1=C(C)NC2=C(C(=O)c3ccccc32)C1c1ccccc1O (centres unmarked) [VIII, 2-methyl-3-ethylthiocarbonyl-4-o-hydroxyphenyl-5-oxo-1,4-dihydroindeno-(1,2-b)pyridine] | 3 mg/kg | – | 5 mg/kg | –
CCSC(=O)C1=C(C)NC2=C(C(=O)c3ccccc32)C1c1ccccc1[N+](=O)[O-] (centres unmarked) [X, 2-methyl-3-ethylthiocarbonyl-4-o-nitrophenyl-5-oxo-1,4-dihydroindeno-(1,2-b)-pyridine] | 3 mg/kg | – | – | LD50 (in vivo): > 2000 mg/kg
